This is an account of results in patent US20040054009A1, “(BIS)sulfonamide derivatives” (priority 2002, published 2004).

Series [1] addresses T1, human GluR4B receptor (Homo sapiens, UniProt P48058).
T1 construct: expressed in transfected cells
The experiment in a line: potentiation of agonist-induced excitability, HEK cells expressing human GluR4B (Fluo3-AM fluorescence, glutamate). The class given is cell-based. As to conditions: human GluR4B receptor expressed in HEK 293 cells. The procedure: 96 well plates containing confluent monolayers of HEK cells stably expressing human GluR^4B (obtained as described in European Patent Application Publication Number EP-A1-583917) were prepared. The tissue culture medium in the wells was then discarded, and the wells were each washed once with 200 μl of 5NaCa buffer (glucose, 10 mM, sodium chloride, 138 mM, magnesium chloride, 1 mM, potassium chloride, 5 mM, calcium chloride, 5 mM, N-[2-hydroxyethyl]-piperazine-N-[2-ethanesulfonic acid], 10 mM, to pH 7.1 to 7.3). The plates were then incubated for 60 minutes in the dark with 20 μM Fluo3-AM dye (obtained from Molecular Probes Inc, Eugene, Oreg.) in 5 NaCa buffer in each well. After the incubation, each well was washed once with 100 μl 5NaCa buffer, 200 μl of 5NaCa buffer was added and the plates were incubated for 30 minutes. […]
Each test was then performed as follows. […] A first reading was then taken using a FLUOROSKAN II fluorimeter (Obtained from Labsystems, Needham Heights, Mass., USA, a Division of Life Sciences International Plc). […] A second reading was then taken using the fluorimeter. The plate was then left in the fluorimeter for 5 minutes, and a third reading was taken. 15 μl of 400 μM glutamate solution was then added to each well (final glutamate concentration 100 μM), and a fourth reading was taken immediately. Approximately three minutes later, a fifth reading was taken. […]

In series [2] the target is human GluR4 (Homo sapiens, UniProt P48058). The experiment in a line: whole cell voltage clamp electrophysiological characterization of AMPA receptor potentiators (response to 100 μM glutamate). The series is classed as cell-based. As to conditions: HEK293 cells stably expressing human GluR4, voltage-clamped at −60 mV, Hill equation fit. From the text:
In another test, HEK293 cells stably expressing human GluR^4 (obtained as described in European Patent Application Publication No. EP-A1-0583917) were used in the electro-physiological characterization of AMPA receptor potentiators. The extracellular recording solution contained (in mM): 140 NaCl, 5 KCl, 10 HEPES, 1 MgCl2, 2 CaCl2, 10 glucose, pH=7.4 with NaOH, 295 mOsm kg^−1. The intracellular recording solution contained (in mM): 140 CsCl, 1 MgCl2, 10 HEPES, (N-[2-hydroxyethyl]piperazine-N^1-[2-ethanesulfonic acid]) 10 EGTA (ethylene-bis(oxyethylene-nitrilo)tetraacetic acid), pH=7.2 with CsOH, 295 mOsm kg^−1. […] Once stable baseline responses to this agonist challenge were obtained, the potentiator was introduced in the extracellular solution bathing the cells at the lowest concentration, and the response to 100 μM glutamate in the presence of this concentration of potentiator was determined.
The concentration of the potentiator, both in the bathing solution and co-applied with the agonist, was increased in half log units until the maximum potentiation was seen. […] Once the control responses to the agonist challenge were re-established, the potentiation of these responses by 100 μM cyclothiazide was determined by its inclusion in both the bathing solution and the agonist-containing solution. […]

T1 sequence (P48058 21-902): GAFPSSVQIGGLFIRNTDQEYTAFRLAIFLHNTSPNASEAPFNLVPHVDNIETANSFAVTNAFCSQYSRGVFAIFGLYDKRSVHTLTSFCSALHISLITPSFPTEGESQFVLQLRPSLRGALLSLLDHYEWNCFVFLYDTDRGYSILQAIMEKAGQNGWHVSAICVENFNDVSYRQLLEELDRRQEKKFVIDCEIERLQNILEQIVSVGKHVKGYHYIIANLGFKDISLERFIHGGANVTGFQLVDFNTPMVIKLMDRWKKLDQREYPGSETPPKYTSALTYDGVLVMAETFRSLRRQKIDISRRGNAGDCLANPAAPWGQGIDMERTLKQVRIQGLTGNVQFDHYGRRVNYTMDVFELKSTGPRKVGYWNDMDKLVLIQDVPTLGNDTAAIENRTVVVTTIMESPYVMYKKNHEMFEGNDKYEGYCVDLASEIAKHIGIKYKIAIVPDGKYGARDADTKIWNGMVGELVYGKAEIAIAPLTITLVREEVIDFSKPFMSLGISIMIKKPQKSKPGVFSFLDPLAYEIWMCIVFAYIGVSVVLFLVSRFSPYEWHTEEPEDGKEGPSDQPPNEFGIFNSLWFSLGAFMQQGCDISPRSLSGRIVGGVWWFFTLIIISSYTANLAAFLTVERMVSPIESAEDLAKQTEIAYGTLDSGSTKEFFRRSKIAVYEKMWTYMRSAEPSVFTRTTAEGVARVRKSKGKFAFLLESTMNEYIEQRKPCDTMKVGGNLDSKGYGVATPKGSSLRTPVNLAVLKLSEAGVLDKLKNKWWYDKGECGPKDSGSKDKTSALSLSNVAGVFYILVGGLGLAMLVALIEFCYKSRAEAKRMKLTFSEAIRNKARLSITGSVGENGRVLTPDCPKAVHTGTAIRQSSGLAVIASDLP
human GluR4, sequence (P48058 21-902): as above

The melting point is the temperature, or range, at which the solid turns liquid. In turn, `CC(C)(C)c1ccc(C2(CNS(=O)(=O)C(F)(F)F)CC2)cc1` [Example 24, N−1-(4-t-butylphenyl)cyclopropylmethyl Trifluoromethanesulfonamide] came in with a melting point of 82 to 84 °C.

Take `NS(=O)(=O)c1cc2c(cc1Cl)NC(C1CC3C=CC1C3)NS2(=O)=O` (stereo not shown) [cyclothiazide]: the “potentiation of agonist-induced excitability of human GluR4B receptor” value in series [1] was “potentiate agonist-induced excitability”.

As usually defined, the EC50 is the concentration needed to bring the measured effect to its halfway point. For `CC(CNS(=O)(=O)C(C)C)c1ccc(-c2ccsc2)cc1` (stereo not shown) [Example 28], in series [2], the EC50 stood at 230 ± 59 nM.

In the case of `CC(C)S(=O)(=O)NCC1(c2ccc(C(C)(C)C)cc2)CC1` [Example 25, N-1-(4-t-butylphenyl)cyclopropylmethyl 2-propanesulfonamide], the melting point was in the range of 87 to 89.5 °C.
